# Assay results from BindingDB's records for doi:10.1021/cb400468c (Massachusetts Institute of Technology, 2013).
# Experiments:
# [1] = biological target: T1, Gag-Pol polyprotein [484-582,I494L,I497V,V499I,E519D,I534V,R541K,D544E,Q553K,A555V,L573M] (Human immunodeficiency virus, UniProt Q9QBY3, A555V/D544E/E519D/I494L/I497V/I534V/L573M/Q553K/R541K/V499I); test: Inhibition Assay
# T1 construct: 484-582
# Protocol: (§1) HIV protease inhibitor activities were determined by fluorescence resonance energy transfer (FRET) method. Protease substrate, Arg-Glu-(EDANS)-Ser-Gln-Asn-Tyr-Pro-Ile-Val-Gln-Lys(DABCYL)-Arg, was labeled with the energy transfer donor (EDANS) and acceptor (DABCYL) dyes at its two ends to perform FRET. Fluorescence measurements were carried out on an EnVision plate reader (PerkinElmer).
# [2] = biological target: T2, Gag-Pol polyprotein [484-582,I494L,I497V,V499I,D514N,E519D,R541K,D544E,Q553K,N572D,L573M] (Human immunodeficiency virus, UniProt Q9QBY3, D514N/D544E/E519D/I494L/I497V/L573M/N572D/Q553K/R541K/V499I); test: Inhibition Assay
# T2 construct: 484-582
# Protocol: as §1
# HIV-1 protease = HIV-1 protease (Human immunodeficiency virus, UniProt O90785); test: Inhibition Assay
# Protocol: as §1
# [3] = biological target: T3, Gag-Pol polyprotein [484-582,I497V,V499I,E519D,R541K,D544E,Q553K,A555V,G557S,I568V,L574M,L573M] (Human immunodeficiency virus, UniProt Q9QBY3, A555V/D544E/E519D/G557S/I497V/I568V/L573M/L574M/Q553K/R541K/V499I); test: Inhibition Assay
# T3 construct: 484-582
# Protocol: as §1
# [4] = biological target: T4, Gag-Pol polyprotein [484-582,I497V,V499I,E519D,G532V,I538V,R541K,D544E,Q553K,V566A,L573M] (Human immunodeficiency virus, UniProt Q9QBY3, D544E/E519D/G532V/I497V/I538V/L573M/Q553K/R541K/V499I/V566A); test: Inhibition Assay
# T4 construct: 484-582
# Protocol: as §1
# [5] = biological target: T5, Gag-Pol polyprotein [489-892,N526H,R530K,V566I,I582L,V648I,Q690K,I723V,C750S,T788A,Q795E,T874A,V881I,P882Q] (Human immunodeficiency virus, UniProt P12497, C750S/I582L/I723V/N526H/P882Q/Q690K/Q795E/R530K/T788A/T874A/V566I/V648I/V881I); test: Drug Susceptibility Assay
# T5 construct: 489-892
# Protocol: (§2) Drug susceptibility assays were carried out by Monogram Bioscience against wild-type HIV-1 control and patient-derived strains of wild-type HIV-1 from clades A, B, and C, and two multi-drug-resistant HIV-1 variants.
# [6] = biological target: T6, Gag-Pol polyprotein [489-892] (Human immunodeficiency virus, UniProt P12497); test: Drug Susceptibility Assay
# T6 construct: 489-892
# Protocol: as §2
# [7] = biological target: HIV WT-C pol protein (wild-type clade C) (Human immunodeficiency virus, UniProt P12497); test: Drug Susceptibility Assay
# Protocol: as §2
# MDRC4 = MDRC4 (Human immunodeficiency virus, UniProt P12497); test: Drug Susceptibility Assay
# Protocol: as §2
# [8] = biological target: HIV WT-A pol protein (wild-type clade A) (Human immunodeficiency virus 1, UniProt P12497); test: Drug Susceptibility Assay
# Protocol: as §2
# MDR1 = MDR1 (Human immunodeficiency virus, UniProt P12497); test: Drug Susceptibility Assay
# Protocol: as §2
SMILES,Ki [1],Ki [2],Ki (HIV-1 protease),Ki [3],Ki [4],EC50 [5],EC50 [6],EC50 [7],EC50 (MDRC4),EC50 [8],EC50 (MDR1)
"COc1ccc(S(=O)(=O)N(CCCc2ccccc2)C[C@@H](O)[C@H](Cc2ccccc2)NC(=O)c2cccc(O)c2)cc1 [3-Hydroxy-N-[(1S,2R)-2-hydroxy-3-[[(4-methoxyphenyl)sulfonyl](3-phenylpropyl)amino]-1-(phenylmethyl)propyl]-benzamide (AF-78)]",5.89 nM,2.54 nM,0.437 nM,23.8 nM,42.9 nM,,,,,,
"CC[C@H](C)CN(C[C@@H](O)[C@H](Cc1ccccc1)NC(=O)c1cccc(O)c1)S(=O)(=O)c1ccc(-c2ccno2)s1 [3-Hydroxy-N-[(1S,2R)-2-hydroxy-3-[[[5-(5-isoxazolyl)-2-thienyl]sulfonyl][(2S)-2-methylbutyl]amino]-1-(phenylmethyl)propyl]-benzamide (AF-71)]",30 nM,2.95 nM,3.33 nM,44.8 nM,18.2 nM,,,,,,
"CC[C@H](C)[C@H](NC(C)=O)C(=O)N[C@@H](Cc1ccccc1)[C@H](O)CN(CC(C)C)S(=O)(=O)c1ccc(OC)cc1 [(2S,3S)-2-(Acetylamino)-N-[(1S,2R)-2-hydroxy-3-[[(4-methoxyphenyl)sulfonyl](2-methylpropyl)amino]-1-(phenylmethyl)propyl]-3-methyl-pentanamide (AF-68)]",0.144 nM,0.049 nM,0.146 nM,1.03 nM,0.819 nM,1.6 nM,3.5 nM,3 nM,15.4 nM,2.4 nM,15.1 nM
"CC[C@H](C)CN(C[C@@H](O)[C@H](Cc1ccccc1)NC(=O)C(NC(C)=O)[C@@H](C)CC)S(=O)(=O)c1ccc2ncsc2c1 (stereo partly drawn) [(2S,3S)-2-(Acetylamino)-N-[(1S,2R)-3-[(6-benzothiazolylsulfonyl)[(2S)-2-methylbutyl]amino]-2-hydroxy-1-(phenylmethyl)propyl]-3-methyl-pentanamide (AG-23)]",0.092 nM,0.028 nM,0.021 nM,0.048 nM,0.376 nM,1.9 nM,2.7 nM,3.5 nM,8.7 nM,2.3 nM,7.2 nM
"O=C(N[C@@H](Cc1ccccc1)[C@H](O)CN(CCCc1ccccc1)S(=O)(=O)c1ccc2ncsc2c1)c1cccc(O)c1 [N-[(1S,2R)-3-[(6-Benzothiazolylsulfonyl)(3-phenylpropyl)amino]-2-hydroxy-1-(phenylmethyl)propyl]-3-hydroxy-benzamide (AF-69)]",2.27 nM,2 nM,0.07 nM,9.96 nM,19.2 nM,,,,,,
"O=C(N[C@@H](Cc1ccccc1)[C@H](O)CN(CC1CCCCC1)S(=O)(=O)c1ccc2ncsc2c1)c1cccc(O)c1 [N-[(1S,2R)-3-[(6-Benzothiazolylsulfonyl)(cyclohexylmethyl)amino]-2-hydroxy-1-(phenylmethyl)propyl]-3-hydroxy-benzamide (AF-72)]",4.82 nM,0.383 nM,0.129 nM,2.75 nM,1.33 nM,37.9 nM,63.7 nM,94.6 nM,165 nM,48.6 nM,99.1 nM
"COc1ccc(S(=O)(=O)N(CC2CCCCC2)C[C@@H](O)[C@H](Cc2ccccc2)NC(=O)c2cccc(O)c2)cc1 [N-[(1S,2R)-3-[(Cyclohexylmethyl)[(4-methoxyphenyl)sulfonyl]amino]-2-hydroxy-1-(phenylmethyl)propyl]-3-hydroxy-benzamide (AF-77)]",3.4 nM,0.49 nM,0.546 nM,2.47 nM,2.04 nM,22.4 nM,47.3 nM,65.7 nM,105 nM,38.4 nM,86.9 nM
CC(C)CN(C[C@@H](O)[C@H](Cc1ccccc1)NC(=O)O[C@H]1CCOC1)S(=O)(=O)c1ccc(N)cc1 [VX-478],,,,,,1.8 nM,3 nM,3.7 nM,17.5 nM,2.6 nM,15.6 nM
